In article PMC5218480 (PLoS ONE, 2017):

Tested on: MV-4-11 cells
Test: Gene expression microarray analysis (Affymetrix PrimeView) and GSEA
Assay type: cell-based, human
Parameters: RFU PODN (11730768_x_at) / Fold change /veh PODN (11730768_x_at) / RFU LINC00158 (11744669_a_at) / Fold change /veh LINC00158 (11744669_a_at) / RFU DUSP10 (11751237_a_at) / Fold change /veh DUSP10 (11751237_a_at) / RFU ID3 (11757404_x_at) / Fold change /veh ID3 (11757404_x_at) / RFU PLEKHG5 (11737974_s_at) / Fold change /veh PLEKHG5 (11737974_s_at) / RFU LRRC4B (11730491_at) / Fold change /veh LRRC4B (11730491_at) / RFU GIMAP4 (11747438_a_at) / Fold change /veh GIMAP4 (11747438_a_at) / RFU KRT8 (11758183_x_at) / Fold change /veh KRT8 (11758183_x_at) / RFU CNN1 (11734310_a_at) / Fold change /veh CNN1 (11734310_a_at) / RFU VPS37D (11726825_at) / Fold change /veh VPS37D (11726825_at) / RFU C10orf10 (11716522_x_at) / Fold change /veh C10orf10 (11716522_x_at) / RFU KIR2DL2 /// KIR2DL4 /// KIR2DL5A /// KIR2DL5B /// KIR2DS1 /// KIR2DS2 /// KIR2DS3 /// KIR2DS4 /// KIR3DL3 /// KIR3DL3 /// KIR3DS1 (11738374_at) / Fold change /veh KIR2DL2 /// KIR2DL4 /// KIR2DL5A /// KIR2DL5B /// KIR2DS1 /// KIR2DS2 /// KIR2DS3 /// KIR2DS4 /// KIR3DL3 /// KIR3DL3 /// KIR3DS1 (11738374_at) / RFU C1QL1 (11718748_at) / Fold change /veh C1QL1 (11718748_at) / RFU TMPRSS4 (11747572_a_at) / Fold change /veh TMPRSS4 (11747572_a_at) / RFU HAMP (11756126_x_at) / Fold change /veh HAMP (11756126_x_at) / RFU RNFT2 (11725882_a_at) / Fold change /veh RNFT2 (11725882_a_at) / RFU NR4A2 (11747474_a_at) / Fold change /veh NR4A2 (11747474_a_at) / RFU ABCC12 (11746883_a_at) / Fold change /veh ABCC12 (11746883_a_at) / RFU TMEM136 (11760407_x_at) / Fold change /veh TMEM136 (11760407_x_at) / RFU CLDN22 /// WWC2 (11732394_at) / Fold change /veh CLDN22 /// WWC2 (11732394_at) / RFU HLA-DPB1 (11760878_x_at) / Fold change /veh HLA-DPB1 (11760878_x_at) / RFU SPINT1 (11716480_a_at) / Fold change /veh SPINT1 (11716480_a_at) / RFU GAP43 (11754022_s_at) / Fold change /veh GAP43 (11754022_s_at) / RFU A4GNT (11735810_at) / Fold change /veh A4GNT (11735810_at) / RFU PRB3 (11715151_x_at) / Fold change /veh PRB3 (11715151_x_at) / RFU TUBB4B (11761932_at) / Fold change /veh TUBB4B (11761932_at) / RFU CAPN14 (11732068_a_at) / Fold change /veh CAPN14 (11732068_a_at) / RFU TMCC2 (11721928_a_at) / Fold change /veh TMCC2 (11721928_a_at) / RFU IRGQ (11745062_a_at) / Fold change /veh IRGQ (11745062_a_at) / RFU FAM174B (11720279_a_at) / Fold change /veh FAM174B (11720279_a_at) / RFU TMPRSS4 (11748680_a_at) / Fold change /veh TMPRSS4 (11748680_a_at) / RFU FAM212B (11763350_a_at) / Fold change /veh FAM212B (11763350_a_at) / RFU PLEKHG5 (11743358_a_at) / Fold change /veh PLEKHG5 (11743358_a_at) / RFU ZSCAN30 (11745921_a_at) / Fold change /veh ZSCAN30 (11745921_a_at) / RFU CMKLR1 (11741424_a_at) / Fold change /veh CMKLR1 (11741424_a_at) / RFU LOC101060620 /// MAPK8IP1 (11723275_at) / Fold change /veh LOC101060620 /// MAPK8IP1 (11723275_at) / RFU SPTSSB (11747773_x_at) / Fold change /veh SPTSSB (11747773_x_at) / RFU PRSS12 (11739890_at) / Fold change /veh PRSS12 (11739890_at) / RFU BIN1 (11741810_x_at) / Fold change /veh BIN1 (11741810_x_at) / RFU WNT11 (11732464_a_at) / Fold change /veh WNT11 (11732464_a_at) / RFU C10orf10 (11716521_a_at) / Fold change /veh C10orf10 (11716521_a_at) / RFU C5orf56 (11738089_at) / Fold change /veh C5orf56 (11738089_at) / RFU CYB561 (11721691_x_at) / Fold change /veh CYB561 (11721691_x_at) / RFU ANKRD19P (11752326_a_at) / Fold change /veh ANKRD19P (11752326_a_at) / RFU OR2T12 /// OR2T33 /// OR2T8 (11738714_s_at) / Fold change /veh OR2T12 /// OR2T33 /// OR2T8 (11738714_s_at) / RFU VCAN (11748164_a_at) / Fold change /veh VCAN (11748164_a_at) / RFU JSRP1 (11732532_at) / Fold change /veh JSRP1 (11732532_at) / RFU KRTAP10-11 (11738290_x_at) / Fold change /veh KRTAP10-11 (11738290_x_at) / RFU MYO3A (11730013_a_at) / Fold change /veh MYO3A (11730013_a_at) / RFU EBF3 (11725865_a_at) / Fold change /veh EBF3 (11725865_a_at) / RFU CAMK2N1 (11719241_x_at) / Fold change /veh CAMK2N1 (11719241_x_at) / RFU C5orf56 (11738088_a_at) / Fold change /veh C5orf56 (11738088_a_at) / RFU OLFML3 (11715873_a_at) / Fold change /veh OLFML3 (11715873_a_at) / RFU LOC100653217 /// NTM (11731650_a_at) / Fold change /veh LOC100653217 /// NTM (11731650_a_at) / RFU MAPK11 (11762145_a_at) / Fold change /veh MAPK11 (11762145_a_at) / RFU FIZ1 (11724087_x_at) / Fold change /veh FIZ1 (11724087_x_at) / RFU OASL (11726364_x_at) / Fold change /veh OASL (11726364_x_at) / RFU SOX15 (11748057_x_at) / Fold change /veh SOX15 (11748057_x_at) / RFU CD79A (11719716_a_at) / Fold change /veh CD79A (11719716_a_at) / RFU HIST1H1D (11736915_at) / Fold change /veh HIST1H1D (11736915_at) / RFU CASKIN2 (11723855_a_at) / Fold change /veh CASKIN2 (11723855_a_at) / RFU LOC730098 (11760151_x_at) / Fold change /veh LOC730098 (11760151_x_at) / RFU OR4N2 (11742367_at) / Fold change /veh OR4N2 (11742367_at) / RFU PRRT2 (11749266_a_at) / Fold change /veh PRRT2 (11749266_a_at) / RFU SNX32 (11753110_a_at) / Fold change /veh SNX32 (11753110_a_at) / RFU CDHR5 (11726645_a_at) / Fold change /veh CDHR5 (11726645_a_at) / RFU RCAN1 (11760418_a_at) / Fold change /veh RCAN1 (11760418_a_at) / RFU FAM167A (11723789_a_at) / Fold change /veh FAM167A (11723789_a_at) / RFU FAM26E (11764081_at) / Fold change /veh FAM26E (11764081_at) / RFU ISYNA1 (11749810_s_at) / Fold change /veh ISYNA1 (11749810_s_at) / RFU ACY1 (11761880_at) / Fold change /veh ACY1 (11761880_at) / RFU 11764098_at / Fold change /veh 11764098_at / RFU SAMD14 (11745864_x_at) / Fold change /veh SAMD14 (11745864_x_at) / RFU NPB (11741838_a_at) / Fold change /veh NPB (11741838_a_at) / RFU TMPRSS6 (11731388_a_at) / Fold change /veh TMPRSS6 (11731388_a_at) / RFU KRTAP10-2 (11738614_at) / Fold change /veh KRTAP10-2 (11738614_at) / RFU ARHGAP8 /// PRR5-ARHGAP8 (11727945_x_at) / Fold change /veh ARHGAP8 /// PRR5-ARHGAP8 (11727945_x_at) / RFU KRTAP5-7 /// NADSYN1 (11734609_at) / Fold change /veh KRTAP5-7 /// NADSYN1 (11734609_at) / RFU RASL12 (11751679_a_at) / Fold change /veh RASL12 (11751679_a_at) / RFU CDKN2B (11736163_a_at) / Fold change /veh CDKN2B (11736163_a_at) / RFU PRF1 (11729649_at) / Fold change /veh PRF1 (11729649_at) / RFU, ZNF638 /// ZNF638-IT1 / Fold change vs veh, ZNF638 /// ZNF638-IT1 / RFU, PANK3 / Fold change vs veh, PANK3 / RFU, SH3YL1 / Fold change vs veh, SH3YL1 / RFU, ZEB2 / Fold change vs veh, ZEB2 / RFU, NRIP1 / Fold change vs veh, NRIP1 / RFU, PTTG1IP / Fold change vs veh, PTTG1IP / RFU, CAPN2 / Fold change vs veh, CAPN2 / RFU, MED14 / Fold change vs veh, MED14 / RFU, SNORA58 / Fold change vs veh, SNORA58 / RFU, C1orf63 / Fold change vs veh, C1orf63 / RFU, LRRFIP1 / Fold change vs veh, LRRFIP1 / RFU, NDUFAF7 / Fold change vs veh, NDUFAF7 / RFU, SLC12A2 / Fold change vs veh, SLC12A2 / RFU, IBTK / Fold change vs veh, IBTK / RFU, ESF1 / Fold change vs veh, ESF1 / Fold change vs veh, TMEM50B / RFU, TAOK1 / Fold change vs veh, TAOK1 / RFU, ACBD3 / Fold change vs veh, ACBD3 / RFU, TMA16 / Fold change vs veh, TMA16 / RFU, RWDD3 / Fold change vs veh, RWDD3 / RFU, BCAT1 / Fold change vs veh, BCAT1 / RFU, EDEM3 / Fold change vs veh, EDEM3 / RFU, TMEM33 / Fold change vs veh, TMEM33 / RFU, WDR75 / Fold change vs veh, WDR75 / RFU, AHCTF1 / Fold change vs veh, AHCTF1 / RFU, TFRC / Fold change vs veh, TFRC / RFU, ZDHHC17 / Fold change vs veh, ZDHHC17 / RFU, NOM1 / Fold change vs veh, NOM1 / RFU, ARL8B / Fold change vs veh, ARL8B / RFU, ZBTB11 / Fold change vs veh, ZBTB11 / RFU, TAMM41 / Fold change vs veh, TAMM41 / RFU, KIAA1704 /// LOC100996395 / Fold change vs veh, KIAA1704 /// LOC100996395 / RFU, ING1 / Fold change vs veh, ING1 / RFU, TRMT61B / Fold change vs veh, TRMT61B / RFU, FUBP3 / Fold change vs veh, FUBP3 / RFU, TP53 / Fold change vs veh, TP53 / RFU, TNKS2 / Fold change vs veh, TNKS2 / RFU, ZFP14 / Fold change vs veh, ZFP14 / RFU, ACTR2 / Fold change vs veh, ACTR2 / RFU, PPP3R1 / Fold change vs veh, PPP3R1 / RFU, PIK3R1 / Fold change vs veh, PIK3R1 / RFU, HNRNPA1 / Fold change vs veh, HNRNPA1 / RFU, RNF170 / Fold change vs veh, RNF170 / RFU, ZNF28 / Fold change vs veh, ZNF28 / RFU, RNGTT / Fold change vs veh, RNGTT / RFU, OGT / Fold change vs veh, OGT / RFU, BRD1 / Fold change vs veh, BRD1 / RFU, MARS / Fold change vs veh, MARS / RFU, ZNF655 / Fold change vs veh, ZNF655 / RFU, FAHD1 / Fold change vs veh, FAHD1 / RFU, BDP1 / Fold change vs veh, BDP1 / RFU, LRRCC1 / Fold change vs veh, LRRCC1 / RFU, ARID1A / Fold change vs veh, ARID1A / RFU, ZNF146 / Fold change vs veh, ZNF146 / RFU, ZNF330 / Fold change vs veh, ZNF330 / RFU, GPN3 / Fold change vs veh, GPN3 / RFU, C9orf123 / Fold change vs veh, C9orf123 / RFU, N4BP2L2 / Fold change vs veh, N4BP2L2 / RFU, ARFIP1 / Fold change vs veh, ARFIP1 / RFU, FAM179B / Fold change vs veh, FAM179B / RFU, BCL10 / Fold change vs veh, BCL10 / RFU, UHRF1BP1L / Fold change vs veh, UHRF1BP1L / RFU, BET1 / Fold change vs veh, BET1 / RFU, CNOT2 / Fold change vs veh, CNOT2 / RFU, ZNF268 / Fold change vs veh, ZNF268 / Fold change vs veh, ZNF507 / RFU, DGCR2 / Fold change vs veh, DGCR2 / RFU, WDSUB1 / Fold change vs veh, WDSUB1 / Fold change vs veh, HSP90B1 /// MIR3652 / RFU, ADSS / Fold change vs veh, ADSS / RFU, GK / Fold change vs veh, GK / RFU, ZNF148 / Fold change vs veh, ZNF148 / RFU, TAF9 / Fold change vs veh, TAF9 / RFU, SLC1A5 / Fold change vs veh, SLC1A5 / RFU, SLMO2 / Fold change vs veh, SLMO2 / RFU, ABCC4 / Fold change vs veh, ABCC4 / RFU, LOC101060439 /// RAP1B / Fold change vs veh, LOC101060439 /// RAP1B / RFU, RFX7 / Fold change vs veh, RFX7 / RFU, GTPBP10 / Fold change vs veh, GTPBP10 / RFU, CNEP1R1 / Fold change vs veh, CNEP1R1 / RFU, BIVM-ERCC5 /// ERCC5 / Fold change vs veh, BIVM-ERCC5 /// ERCC5 / RFU, ILF3 / Fold change vs veh, ILF3 / RFU 11762660_at / Fold change /veh 11762660_at / RFU VCAN (11757783_s_at) / Fold change /veh VCAN (11757783_s_at) / RFU DDX43 (11728927_at) / Fold change /veh DDX43 (11728927_at) / RFU KRT8 (11758188_x_at) / Fold change /veh KRT8 (11758188_x_at) / RFU NKD1 (11759106_at) / Fold change /veh NKD1 (11759106_at) / RFU SRD5A1 (11742802_a_at) / Fold change /veh SRD5A1 (11742802_a_at) / RFU TPSAB1 /// TPSB2 (11721975_s_at) / Fold change /veh TPSAB1 /// TPSB2 (11721975_s_at) / RFU GSTM3 (11746129_a_at) / Fold change /veh GSTM3 (11746129_a_at) / RFU IL23R (11737362_x_at) / Fold change /veh IL23R (11737362_x_at) / RFU TMEM51 (11727254_a_at) / Fold change /veh TMEM51 (11727254_a_at) / RFU PIWIL2 (11732686_x_at) / Fold change /veh PIWIL2 (11732686_x_at) / RFU ORM1 (11744905_x_at) / Fold change /veh ORM1 (11744905_x_at) / RFU CCDC152 (11743942_at) / Fold change /veh CCDC152 (11743942_at) / RFU ECM1 (11717891_a_at) / Fold change /veh ECM1 (11717891_a_at) / RFU IL23R (11748794_a_at) / Fold change /veh IL23R (11748794_a_at) / RFU TNFAIP8L3 (11732012_x_at) / Fold change /veh TNFAIP8L3 (11732012_x_at) / RFU MBOAT4 (11741988_at) / Fold change /veh MBOAT4 (11741988_at) / RFU 11764193_at / Fold change /veh 11764193_at / RFU TMEM53 (11763286_at) / Fold change /veh TMEM53 (11763286_at) / RFU MAGEB2 (11727129_at) / Fold change /veh MAGEB2 (11727129_at) / RFU TMEM200A (11744735_a_at) / Fold change /veh TMEM200A (11744735_a_at) / RFU CCDC152 (11751479_a_at) / Fold change /veh CCDC152 (11751479_a_at) / RFU FAM211A (11726209_a_at) / Fold change /veh FAM211A (11726209_a_at) / RFU RGS16 (11746705_a_at) / Fold change /veh RGS16 (11746705_a_at) / RFU VCAN (11755009_s_at) / Fold change /veh VCAN (11755009_s_at) / RFU RHOB (11743442_s_at) / Fold change /veh RHOB (11743442_s_at) / RFU RGS16 (11720943_a_at) / Fold change /veh RGS16 (11720943_a_at) / RFU RGS16 (11720944_at) / Fold change /veh RGS16 (11720944_at) / RFU, VPS4B / Fold change vs veh, VPS4B / RFU, CREB1 / Fold change vs veh, CREB1 / RFU, DNAJC13 / Fold change vs veh, DNAJC13 / RFU, GNAQ / Fold change vs veh, GNAQ / RFU, CDK5R1 / Fold change vs veh, CDK5R1 / RFU, ZRANB3 / Fold change vs veh, ZRANB3 / RFU, CUL4A / Fold change vs veh, CUL4A / RFU, CCNY / Fold change vs veh, CCNY / RFU, UFL1 / Fold change vs veh, UFL1 / RFU, COG3 / Fold change vs veh, COG3 / RFU, DIAPH2 / Fold change vs veh, DIAPH2 / RFU, SKA2 / Fold change vs veh, SKA2 / RFU, AFF3 / Fold change vs veh, AFF3 / RFU, LMF1 / Fold change vs veh, LMF1 / RFU, IPO11 / Fold change vs veh, IPO11 / RFU, DFFB / Fold change vs veh, DFFB / RFU, FOXP1 / Fold change vs veh, FOXP1 / RFU, CARD8 / Fold change vs veh, CARD8 / RFU, STRN3 / Fold change vs veh, STRN3 / RFU, ADK / Fold change vs veh, ADK / RFU, RASSF2 / Fold change vs veh, RASSF2 / RFU, WIPF1 / Fold change vs veh, WIPF1 / RFU, LARP1B / Fold change vs veh, LARP1B / RFU, RASA1 / Fold change vs veh, RASA1 / RFU, RB1 / Fold change vs veh, RB1 / RFU, PPFIA1 / Fold change vs veh, PPFIA1 / RFU, MAT2A / Fold change vs veh, MAT2A / RFU, CCT5 / Fold change vs veh, CCT5 / RFU, WDR92 / Fold change vs veh, WDR92 / RFU, CUX1 / Fold change vs veh, CUX1 / RFU, TTC7A / Fold change vs veh, TTC7A / RFU, TMEM135 / Fold change vs veh, TMEM135 / RFU, DEPTOR / Fold change vs veh, DEPTOR / RFU, CPM / Fold change vs veh, CPM / RFU, DNAJB6 / Fold change vs veh, DNAJB6 / RFU, CACNA2D3 / Fold change vs veh, CACNA2D3 / RFU, DTX4 / Fold change vs veh, DTX4 / RFU, TFCP2 / Fold change vs veh, TFCP2 / RFU, GMCL1 /// GMCL1P1 / Fold change vs veh, GMCL1 /// GMCL1P1 / RFU, AEBP2 / Fold change vs veh, AEBP2 / RFU, SNHG1 /// SNORD22 /// SNORD25 /// SNORD26 /// SNORD27 /// SNORD28 /// SNORD29 /// SNORD31 / Fold change vs veh, SNHG1 /// SNORD22 /// SNORD25 /// SNORD26 /// SNORD27 /// SNORD28 /// SNORD29 /// SNORD31 / Fold change (Aza/veh), C12orf56 (ProbeSet 11735607_a_at) / Fold change (ACY-1035/veh), C12orf56 (ProbeSet 11735607_a_at) / Fold change (Aza/veh), FGFR1OP (ProbeSet 11751329_s_at) / Fold change (ACY-1035/veh), FGFR1OP (ProbeSet 11751329_s_at) / Fold change (Aza/veh), VPS36 (ProbeSet 11739960_a_at) / Fold change (ACY-1035/veh), VPS36 (ProbeSet 11739960_a_at) / RFU SYPL1 (11715823_x_at) / Fold change /veh SYPL1 (11715823_x_at) / RFU IGFBP7 (11715501_s_at) / Fold change /veh IGFBP7 (11715501_s_at) / RFU REEP3 (11722064_at) / Fold change /veh REEP3 (11722064_at) / RFU IGLL1 (11728026_x_at) / Fold change /veh IGLL1 (11728026_x_at): dose or concentration left out as unconfirmed
Conditions: MV-4-11 cells, 48 hours

SMILES: Nc1ccc(-c2cccs2)cc1NC(=O)c1ccc2c(c1)cc(C1CC1)n2CCN1CCOCC1 [ACY-1035]
- RFU LRRC4B (11730491_at): 28.30 RFU
